Data as given in US5155209A, “R-(+) enantiomeric form of 7-(2, 3-epoxypropoxy) actinomycin D” (priority 1991, dated 1992).
Numbered stars: 1 amine (or outer) side, 2 acyl side, 3 side chain; on linkers, the order of the positions; unused ones are H or OH. Bridge positions count the residues as written; N and C are the ends. Square brackets hold non-standard residues; d marks the D form. Peptide text beside a SMILES is read from it. I, II: the chains in the order shown. Actinocin(9to1) = Cc1c2oc3c(C)ccc(C(=O)[*:1])c3nc-2c(C(=O)[*:2])c(N)c1=O; NMeV = CN[C@H](C(=O)O)C(C)C; Sar = CNCC(=O)O

Legend:
Calf Thymus DNA = test: Thermal denaturation (ΔTm) of DNA-drug complex; type: binding; settings: 0.01 phosphate buffer pH 7.0, 5% Me2SO; in °C (unit assumed)
Procedure: ^a ΔTm = Tm of DNAdrug complex minus Tm of
drugfree DNA; concentration of drug 14.0 nM and that of DNA 70 nM in 0.01
phosphate buffer, pH 7.0, 5 × 10^3 EDTA and 5% Me2 SO.
DNA-binding experiments were carried out in 0.01M phosphate buffer (pH7), containing EDTA (10^-5 M).

purified calf thymus DNA = test: Covalent and noncovalent (intercalative) binding to calf thymus DNA, [DNA base]/[drug] ratios; settings: 20 mM Tris-HCl pH 7.4, 37° C.
Procedure: ^b Binding to purified calf thymus DNA in 20 mM TrisHCl, ph 7.4 buffe
at 37° C.; A values are molar ratios of DNA to drug based on the
total amount of drug that is bound both intercalatively and covalently to
^c B values are similar ratios assayed on the basis of drugs bound
entirely by covalent bonding to DNA base.

P388/ADR [1] = test: Inhibition of growth in vitro of P388/ADR cells; type: cell-based, mouse; settings: actively growing tumor cells
Procedure: (§1) The analogues are assayed for in vitro growth inhibitory activity against several experimental tumor lines including human and murine leukemia, mouse melanoma, and human lymphoblastic leukemia.

B16 = test: Inhibition of growth in vitro of B16 cells; type: cell-based, mouse; settings: actively growing tumor cells
Procedure: as §1

P388/ADR [2] = test: Antitumor activity against ip implanted P388/ADR in CDF1 mice; type: in vivo; parameters: OD (optimal dose of drugs): unit not given here
Procedure: ^e Optimal dose of drugs.
^ f Median survival time of tumor bearing mice.
^g Percent increase in median life time in days of drugtreated dying
animals vs those of controls; (survivors), number of 60 days
survivors/number of animals tested in the group.
In order to examine a broader spectrum of activity, these optical isomers are tested in two other mouse leukemia cell lines in vivo. One cell line, P388/ADR, is a derivative of the above P388/S made resistant to intercalating agents like […].

[3] = system: DNA synthesis in L1210 cells; test: Inhibition of DNA synthesis in L1210 ([methyl-14C]thymidine incorporation); type: cell-based, Murine; settings: [methyl-14C]thymidine incorporation into DNA; read-out: inhibition of synthesis of nucleic acids in L1210 IC50 DNA
Procedure: (§2) ^a Drug concentration (micromolor) for 50% reduction of incorporation
(§3) of [methyl^14 C]thymidine into DNA^b and [5^3 H] uridine into
(§4) RNA^c from the rate of incorporation of the same radionucleotides in
(§5) nondrug treated L1210 cells growing actively in vitro.
(§6) Inhibition of nucleic acid synthesis in L1210 lymphoid leukemia cells by (±)-EPA and it optical isomers are assayed. […] To achieve this, a digestion of the nucleic acid pellet with DNase-free RNase enzyme, prior to final pelleting of the DNA precipitate is made to ensure that no more than ±8% contamination from […] into DNA takes place, and for this the necessary correction is made in the data reported in Table V.

[4] = system: RNA synthesis in L1210 cells; test: Inhibition of RNA synthesis in L1210 ([5-3H]uridine incorporation); type: cell-based, Murine; settings: [5-3H]uridine incorporation into RNA; read-out: inhibition of synthesis of nucleic acids in L1210 IC50 RNA
Procedure: as §2, §3, §4, §5, §6

L1210 cells = test: Inhibition of growth of L1210 cells in culture; type: cell-based, Murine
Procedure: as §1

leukemia L1210 = test: Activity in mice bearing leukemia L1210; type: in vivo; settings: L1210 ip in CDF1 mouse
Excerpt: ^e OD, optimal dose of drugs in milligrams/killograms per injection,
administered ip on days 1, 5, and 9, following ip inoculation with
^f % ILS, percent increase in median life span in days, of the
tumorbearing drugtreated dying animals when compared with similar tumor
bearing mice but not treated with drugs. (surv), number of over 60 days
survivors/number of animals tested.

B16 melanoma [5] = test: B16 melanoma implanted sc, drug iv (sc-iv) in BDF1 mice; type: in vivo
Procedure: (§7) Subcutaneously implanted B16 melanoma in BDF1 mice is a slow growing tumor, but its rate of growth becomes faster when it is implanted ip. […] This is not consistent with data in other tumors; however, in this connection it should be pointed out that the combined effects of drugs (or enantiomers in this case) can be manifested in several ways, i.e., they can be synergistic, additive, or subtractive.
(§8) 0.2 ml of brei (tumor weight/Hank's balanced salt solution, (1:5) of B16
(§9) implanted sc or ip into groups of nine BDF1 mice on day 0. Drugs
(§10) administered iv on day 1 or ip on days 1, 5, and 9, following tumor
(§11) administered ip on days 1, 5, and 9. OD, optimal dose in
(§12) milligrams/milliliter of vehicle, and administered iv or ip in 0.1 mL of
(§13) vehicle (5% v/v Me2 SOsaline). MST, median survival times in days of
(§14) tumor bearing and nondrug treated (control) or drugtreated mice. % ILS,
(§15) percent increase in life span of drug treated groups over the control
(§16) group of test animals, excluding survivors. (surv), number of sixty day
(§17) survivors/number of mice treated with drug.

B16 melanoma [6] = test: B16 melanoma implanted ip, drug ip (ip-ip) in BDF1 mice; type: in vivo
Procedure: as §7, §8, §9, §10, §11, §12, §13, §14, §15, §16, §17

C26 colon carcinoma = C26 colon carcinoma implanted in CDF1 mice, drug ip; type: in vivo
Procedure: implantation. Primary colon C26 carcinoma (tripan blue excluding, 2.5
× 10^5 cells/mouse) implanted in CDF1 mice on day 0; drug
as §11, §12, §13, §14, §15, §16, §17

CCRF-CEM = test: In vitro growth inhibition of CCRF-CEM human lymphoblastic leukemia cells; type: cell-based; settings: purer (90%) form of isomers
Procedure: as §1

[7] = cited from earlier work
[8] = ip days 1, 5, 9, at optimal dose
[9] = B16 sc implanted, drug iv day 1
[10] = B16 ip implanted, drug ip days 1, 5, 9

Cc1c2oc3c(C)ccc(C(=O)N[C@@H]4C(=O)N[C@H](C(C)C)C(=O)N5CCC[C@H]5C(=O)N(C)CC(=O)N(C)[C@@H](C(C)C)C(=O)O[C@@H]4C)c3nc-2c(C(=O)N[C@@H]2C(=O)N[C@H](C(C)C)C(=O)N3CCC[C@H]3C(=O)N(C)CC(=O)N(C)[C@@H](C(C)C)C(=O)O[C@@H]2C)c(N)c1=O [1b(AMD), Actinomycin D] (I: T[dV]P[Sar][NMeV] / II: T[dV]P[Sar][NMeV]; ester I:1-I:C, II:1-II:C; linker I:N-II:N via Actinocin(9to1))
Tm (ΔTm = Tm of DNA-drug complex minus Tm of drug-free DNA) (Calf Thymus DNA): 7.1 ± 0.15 | [DNA base]/[drug] A: molar ratio of DNA to drug, total drug bound intercalatively and covalently (purified calf thymus DNA): 26 ± 2 | inhibition of growth ID50 P388/ADR (P388/ADR [1]): 2500 ± 250 nM | inhibition of growth ID50 B16 (B16): 3.0 ± 1.0 nM | % ILS (percent increase in median life time vs controls) (P388/ADR [2]; ip qd 1-9, at optimal dose): 33% | (surv) number of 60 days survivors/number of animals tested (P388/ADR [2]; ip qd 1-9, at optimal dose): 0/10 | MST (median survival time) (P388/ADR [2]; ip qd 1-9, at optimal dose): 12 days | OD (optimal dose of drugs) (P388/ADR [2]; treated ip qd 1-9): 0.075 | IC50 [3]: 380 ± 28 nM | IC50 [4]: 19 ± 6 nM | inhibition of growth of L1210 cells in culture; ID50 (L1210 cells): 60.1 ± 9.8 nM | OD (optimal dose) (leukemia L1210; ip days 1, 5, 9): 0.025 milligrams/killograms per inje | % ILS (percent increase in median life span) (leukemia L1210; [8]): 55% | (surv) number of over 60 days survivors/number of animals tested (leukemia L1210; [8]): 0/9 | % ILS (B16 melanoma [5]; [9]): 36% | (surv) sixty day survivors/number of mice treated (B16 melanoma [5]; [9]): 0/9 | MST (median survival time) (B16 melanoma [5]; [9]): 45.0 days | OD (optimal dose) (B16 melanoma [5]; B16 sc implanted, drug iv day 1, 0.1 mL vehicle): 0.9 milligrams/milliliter of vehic | activity against sc implanted B16 tumor, in words (B16 melanoma [5]; iv administered): only marginally active | % ILS (B16 melanoma [6]; [10]): 52% | (surv) sixty day survivors/number of mice treated (B16 melanoma [6]; [10]): 0/9 | MST (median survival time) (B16 melanoma [6]; [10]): 29.0 days | OD (optimal dose) (B16 melanoma [6]; B16 ip implanted, drug ip days 1, 5, 9, 0.1 mL vehicle): 0.25 milligrams/milliliter of vehic | activity against ip implanted B16 tumor, in words (B16 melanoma [6]; ip administered): only moderately active | % ILS (C26 colon carcinoma; drug ip days 1, 5, 9): 52% | (surv) sixty day survivors/number of mice treated (C26 colon carcinoma; drug ip days 1, 5, 9): 0/10 | MST (C26 colon carcinoma; drug ip days 1, 5, 9): 33.5 days | OD (optimal dose) (C26 colon carcinoma; drug ip days 1, 5, 9, 0.1 mL vehicle): 0.30 milligrams/milliliter of vehic | 50% growth inhibitory dose (ID50) (CCRF-CEM): 12.5 nM | metabolism in vivo [7]: not metabolized in vivo
